Target: HCV RNA-dependent RNA polymerase (NS5B) (Hepatitis C virus genotype 1b (isolate BK) (HCV), UniProt P26663)
Assay: RNA-Dependent RNA HCV NS5B (polymerase) Assay and IC50 Determination
Assay type: biochemical
Settings: purified HCV NS5B polymerase, polyA:U16 substrate, 32P-UTP incorporation; read-out: IC50
Protocol: RNA-Dependent RNA HCV NS5B (polymerase) Assay and IC50 Determination.
The reaction mixtures consisted of 50 mM Hepes-KOH, pH 7.5, 5 mM MgCl2, 5 mM DTT, 2% glycerol, 0.01% Triton® X-100, 0.5 uM polyA:U16 substrate, purified HCV RNA-dependent RNA polymerase, 10 μM UTP, and ^32P-UTP (Perkin Elmer). The reaction mixtures incubated at 30° C. for 60 minutes, and then filtered through Zeta probe membrane (BioRad). The filter was washed with 5×SSC (75 mM sodium citrate, pH 7 and 750 mM NaCl), and the radiolabeled RNA products were quantitated by microbeta (Perkin Elmer). For IC50 determination, different concentrations of inhibitors were added to the polymerase reaction mixtures, and incubated at 37° C. for 60 minutes. IC50 values were determined using GraFit (Erithaus software).
Table 1 presents IC50 data obtained using the biochemical assay to test representative compounds. Data are presented as follows: “+++” means <0.1 μM; “++” means ≥0.1 μM but <1.0 μM; “+” means ≥1.0 μM.

Sequence of HCV RNA-dependent RNA polymerase (NS5B) (P26663 2420-3010): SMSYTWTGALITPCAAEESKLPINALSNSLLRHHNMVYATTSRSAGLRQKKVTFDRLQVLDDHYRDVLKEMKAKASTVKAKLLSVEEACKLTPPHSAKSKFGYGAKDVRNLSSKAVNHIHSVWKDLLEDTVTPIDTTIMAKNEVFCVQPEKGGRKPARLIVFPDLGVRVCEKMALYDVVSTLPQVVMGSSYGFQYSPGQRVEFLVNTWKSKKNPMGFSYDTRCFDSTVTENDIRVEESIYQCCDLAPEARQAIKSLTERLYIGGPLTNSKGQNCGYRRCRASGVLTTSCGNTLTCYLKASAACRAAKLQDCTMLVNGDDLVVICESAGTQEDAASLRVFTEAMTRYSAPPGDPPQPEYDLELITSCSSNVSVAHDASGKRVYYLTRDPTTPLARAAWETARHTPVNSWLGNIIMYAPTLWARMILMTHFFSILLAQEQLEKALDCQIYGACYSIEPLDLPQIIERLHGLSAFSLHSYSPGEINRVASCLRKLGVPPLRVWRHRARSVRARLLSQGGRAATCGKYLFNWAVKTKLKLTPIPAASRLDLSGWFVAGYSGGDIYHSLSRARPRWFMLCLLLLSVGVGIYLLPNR

`CCOC(=O)/C(O)=C/C(=O)c1cccc(COCCOCCOCCOCCN(c2cc3oc(-c4ccc(F)cc4)c(C(=O)NC)c3cc2C2CC2)S(C)(=O)=O)c1` [Compound 02-9C, 4-[3-(2-{2-[2-(2-{[5-Cyclopropyl-2-(4-fluoro-phenyl)-3-methylcarbamoyl-benzofuran-6-yl]-methanesulfonyl-amino}-ethoxy)-ethoxy]-ethoxy}-ethoxymethyl)-phenyl]-2-hydroxy-4-oxo-but-2-enoic Acid Ethyl Ester] was tested. Which IC50 did it give?
Its IC50 is over 1 µM.

With `CNC(=O)c1c(-c2ccc(F)cc2)oc2cc(N(CCOCCOCCOC3(C(=O)O)CCCC3)S(C)(=O)=O)c(C3CC3)cc12` [Compound 26-7A, 1-{2-[2-(2-{[5-Cyclopropyl-2-(4-fluoro-phenyl)-3-methylcarbamoyl-benzofuran-6-yl]-methanesulfonyl-amino}-ethoxy)-ethoxy]-ethoxy}-cyclopentanecarboxylic Acid] as the compound, how does the IC50 read?
Its IC50 is under 0.1 µM.

For `CCOC(=O)c1ccccc1OCCOCCOCCN(c1cc2oc(-c3ccc(F)cc3)c(C(=O)NC)c2cc1C1CC1)S(C)(=O)=O` [Compound 14-6A, 2-{2-[2-(2-{[5-Cyclopropyl-2-(4-fluoro-phenyl)-3-methylcarbamoyl-benzofuran-6-yl]-methanesulfonyl-amino}-ethoxy)-ethoxy]-ethoxy}-benzoic Acid Ethyl Ester], which IC50 is on record?
Its IC50 is 0.1 to 1 µM.

Which IC50 does the source give for `CNC(=O)c1c(-c2ccc(F)cc2)oc2cc(N(CCOCCOCCOCCN)S(C)(=O)=O)c(C3CC3)cc12` [Compound 04-10, 6-(N-(2-(2-(2-(2-Aminoethoxy)-ethoxy)-ethoxy)-ethyl)-methylsulfonamido)-5-cyclopropyl-2-(4-fluorophenyl)-N-methylbenzofuran-3-carboxamide] here?
The IC50 was over 1 µM.

`CNC(=O)c1c(-c2ccc(F)cc2)oc2cc(N(CCOCCOCCOCCCc3cccc(C(=O)CC(=O)C(=O)O)c3)S(C)(=O)=O)c(C3CC3)cc12` [Compound 30-10, 4-[3-(3-{2-[2-(2-{[5-Cyclopropyl-2-(4-fluoro-phenyl)-3-methylcarbamoyl-benzofuran-6-yl]-methanesulfonyl-amino}-ethoxy)-ethoxy]-ethoxy}-propyl)-phenyl]-2,4-dioxo-butyric acid] was tested. Which IC50 did it give?
The IC50 was over 1 µM.

Which IC50 does the source give for `CNC(=O)c1c(-c2ccc(F)cc2)oc2cc(N(CCOCCOCCOCCOCc3ccc(C(=O)/C=C(\O)C(=O)O)cc3)S(C)(=O)=O)c(C3CC3)cc12` [Compound 02-10H, 4-[4-(2-{2-[2-(2-{[5-Cyclopropyl-2-(4-fluoro-phenyl)-3-methylcarbamoyl-benzofuran-6-yl]-methanesulfonyl-amino}-ethoxy)-ethoxy]-ethoxy}-ethoxymethyl)-phenyl]-2-hydroxy-4-oxo-but-2-enoic Acid] here?
Its IC50 is over 1 µM.

`CNC(=O)c1c(-c2ccc(F)cc2)oc2cc(N(CCOCCOCc3ccc(F)c(C(=O)NO)c3)S(C)(=O)=O)c(C3CC3)cc12` [Compound 17A-8B, 5-Cyclopropyl-6-({2-[2-(4-fluoro-3-hydroxycarbamoyl-benzyloxy)-ethoxy]-ethyl}-methanesulfonyl-amino)-2-(4-fluoro-phenyl)-benzofuran-3-carboxylic Acid Methylamide] was tested. Which IC50 did it give?
Its IC50 is over 1 µM.

For `CNC(=O)c1c(-c2ccc(F)cc2)oc2cc(N(CCOCCOCCOCC(N)=O)S(C)(=O)=O)c(C3CC3)cc12` [Compound 23-7A, 6-({2-[2-(2-Carbamoylmethoxy-ethoxy)-ethoxy]-ethyl}-methanesulfonyl-amino)-5-cyclopropyl-2-(4-fluoro-phenyl)-benzofuran-3-carboxylic Acid Methylamide], which IC50 is on record?
The IC50 was 0.1 to 1 µM.

How did the IC50 turn out when `CNC(=O)c1c(-c2ccc(F)cc2)oc2cc(N(CCOCCOCc3ccc(C(=O)O)c(N)c3)S(C)(=O)=O)c(C3CC3)cc12` [Compound 29-10, 2-Amino-4-[2-(2-{[5-cyclopropyl-2-(4-fluoro-phenyl)-3-methylcarbamoyl-benzofuran-6-yl]-methanesulfonyl-amino}-ethoxy)-ethoxymethyl]-benzoic Acid] was run?
Its IC50 is 0.1 to 1 µM.
